Drawing on the supplement of paper PMC9938120, this text covers drug sensitivity score for 51 compounds.

The subject of this assay is FMOC25_1 (patient-derived low-grade serous ovarian cancer cells). The assay can be described thus: drug sensitivity score (DSS3, normalised partial AUC of % inhibition dose-response) (DSS (score)); higher = more sensitive (stronger inhibition of viability); extreme values may be limits of the assay. Particulars: 72 h; library: FO4B; assay format: 2D, 384-well, CellTiter-Glo. In a few lines: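 Early-passage (under 10) patient-derived ovarian cancer cells were dispensed onto 384-well flat clear-bottom plates pre-plated with compounds at five concentrations spanning a 10,000-fold range, then incubated 72 h at 37 °C, 5% CO2. Viability was read with CellTiter-Glo, and the data were processed in Breeze. The drug sensitivity score is a partial area under the percent-inhibition dose-response curve divided by the log of the upper asymptote, with higher values meaning greater sensitivity.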
Background: ATP-based viability assays read luminescence as a measure of living cells.

`Cn1nccc1Nc1nccc(-c2ccn([C@H](CO)c3ccc(Cl)c(F)c3)c(=O)c2)n1` [GDC-0994] showed a drug sensitivity score of 6.

In turn, `O=P1(NCCCl)OCCCN1CCCl` (stereo unspecified) [Ifosfamide] registered a drug sensitivity score of 0.

In turn, `NC(=O)c1ccc(I)c([N+](=O)[O-])c1` [Iniparib] had a drug sensitivity score of 0.

`CCc1c2c(nc3ccc(OC(=O)N4CCC(N5CCCCC5)CC4)cc13)-c1cc3c(c(=O)n1C2)COC(=O)[C@]3(O)CC` [Irinotecan] gave a drug sensitivity score of 5.1.

For `CCCNC(=O)Nc1ccc(Oc2ncnc3cc(OC)c(OC)cc23)cc1Cl` [KRN-633], the drug sensitivity score was 0.

Compound `O=C(c1ccc(/C=C/c2n[nH]c3ccccc23)cc1)N1CCNCC1` [KW-2449] came in with a drug sensitivity score of 0.

Turning to `O=C(Cc1ccc(-c2ccc(OCCN3CCOCC3)cc2)cn1)NCc1ccccc1` [KX2-391], the drug sensitivity score worked out at 12.7.

`CN[C@@H](C)C(=O)N[C@H](C(=O)N1CCC[C@H]1c1nc(C(=O)c2ccc(F)cc2)cs1)C1CCCCC1` [LCL161] registered a drug sensitivity score of 7.7.

`C[C@]12O[C@H](C[C@]1(O)CO)n1c3ccccc3c3c4c(c5c6ccccc6n2c5c31)CNC4=O` [Lestaurtinib] returned a drug sensitivity score of 5.3.

`c1ccc([C@H]2CN3CCSC3=N2)cc1` [Levamisole] gave a drug sensitivity score of 0.

The compound `O=NN(CCCl)C(=O)NC1CCCCC1` [Lomustine] displayed a drug sensitivity score of 0.

`C=CCn1c(=O)c2cnc(Nc3ccc(N4CCN(C)CC4)cc3)nc2n1-c1cccc(C(C)(C)O)n1` [MK1775]: the drug sensitivity score turned out to be 11.5.

Turning to `CN(C[C@@H]1COCCO1)S(=O)(=O)Nc1ccc2ccc3ncc(-c4cnn(C)c4)cc3c(=O)c2c1` [MK-2461], the drug sensitivity score is 2.8.

In turn, `CC(C)n1nc(-c2ccc3oc(N)nc3c2)c2c(N)ncnc21` [MLN-0128] showed a drug sensitivity score of 21.

With `O=C(O)c1ccc(Nc2ncc3c(n2)-c2ccc(Cl)cc2C(c2c(F)cccc2F)=NC3)cc1` [MLN-8054], the drug sensitivity score came to 0.

Compound `N[C@@H](Cc1ccc(N(CCCl)CCCl)cc1)C(=O)O` [Melphalan] gave a drug sensitivity score of 0.

`CCN1CCN(Cc2ccc(-c3cc4c(N[C@H](C)c5ccccc5)ncnc4[nH]3)cc2)CC1` [NVP-AEE788]: the drug sensitivity score turned out to be 6.

In the case of `CCN1CCN(c2ccc(Nc3cc(N(C)C(=O)Nc4c(Cl)c(OC)cc(OC)c4Cl)ncn3)cc2)CC1` [NVP-BGJ398], the drug sensitivity score is 0.

With `CNC(=O)c1ccc(-c2cnc3ncc(Cc4ccc5ncccc5c4)n3n2)cc1F` [NVP-INC280], the drug sensitivity score came to 0.

For the compound `COc1ccc(C2=N[C@@H](c3ccc(Cl)cc3)[C@@H](c3ccc(Cl)cc3)N2C(=O)N2CCNC(=O)C2)c(OC(C)C)c1` [Nutlin-3], the drug sensitivity score was 3.5.

`COc1cccc2cc(-c3nc([C@H]4CC[C@H](C(=O)O)CC4)n4ncnc(N)c34)[nH]c12` [OSI-027] returned a drug sensitivity score of 8.2.

Take `O=C(Nc1ccc(OC(F)(F)F)cc1)c1sccc1NCc1ccnc2ccccc12` [OSI-930]: the drug sensitivity score is 0.

The compound `CC(=O)c1cnc2ccc(-c3cc(Cl)c(O)c(Cl)c3)nc2c1N[C@H]1CC[C@H](CN(C)C)CC1` [OTSSP167] gave a drug sensitivity score of 7.7.

For the compound `Cc1sc2c(c1C)C(c1ccc(Cl)cc1)=N[C@@H](CC(=O)Nc1ccc(O)cc1)c1nnc(C)n1-2` [OTX015], the drug sensitivity score was found to be 6.3.

In turn, `COC1=CC(c2cc3ccccc3[nH]2)=N/C1=C\c1[nH]c(C)cc1C` [Obatoclax] yielded a drug sensitivity score of 1.8.

As for `Cc1[nH]c(/C=C2\C(=O)Nc3ccccc32)c(C)c1CCC(=O)O` [Orantinib], the drug sensitivity score is 2.6.

On to `CCn1nnc2c(N3CCOCC3)nc(-c3ccc(NC(=O)Nc4ccc(C(=O)N5CCN(C)CC5)cc4)cc3)nc21` [PKI-402], for which the drug sensitivity score turned out to be 19.1.

The compound `C/C(=C\c1csc(C)n1)[C@@H]1C[C@@H]2O[C@]2(C)CCC[C@H](C)[C@H](O)[C@@H](C)C(=O)C(C)(C)[C@@H](O)CC(=O)O1` [Patupilone] displayed a drug sensitivity score of 9.3.

`CCOc1cc2ncc(C#N)c(Nc3ccc(F)c(Cl)c3)c2cc1NC(=O)/C=C/CN(C)C` [Pelitinib]: the drug sensitivity score is 13.1.

Turning to `COc1ccc(Cl)c(Nc2nc3ccccc3nc2NS(=O)(=O)c2cccc(NC(=O)C(C)(C)N)c2)c1` [Pilaralisib], the drug sensitivity score amounted to 2.2.

With `O=C(NC[C@H](O)CO)c1ccncc1Nc1ccc(I)cc1F` [Pimasertib], the drug sensitivity score was 14.7.

As for `O=C(CCBr)N1CCN(C(=O)CCBr)CC1` [Pipobroman], the drug sensitivity score came out at 1.6.

The compound `C[C@]12C=CC(=O)C=C1CC[C@@H]1[C@@H]2C(=O)C[C@@]2(C)[C@H]1CC[C@]2(O)C(=O)CO` [Prednisone] came in with a drug sensitivity score of 0.

`CNNCc1ccc(C(=O)NC(C)C)cc1` [Procarbazine] registered a drug sensitivity score of 0.

`Cc1cc(-c2ncc(-c3cccnc3)cc2/C=C/c2ccccc2)cnc1-c1cccnc1` [Pyridoclax] registered a drug sensitivity score of 5.5.

The compound `Cn1c(Nc2ccc(C(F)(F)F)cc2)nc2cc(Oc3ccnc(-c4ncc(C(F)(F)F)[nH]4)c3)ccc21` [RAF265] came in with a drug sensitivity score of 8.1.

As to `CNC(=O)c1ccc(N2C(=S)N(c3ccc(C#N)c(C(F)(F)F)c3)C(=O)C23CCC3)cc1F` [RD162], the drug sensitivity score was 0.

For `CCNC(=O)Nc1ccc(-c2nc3c(c(N4CCOC[C@@H]4C)n2)CCN(C2COC2)C3)cc1` [RG-7603], the drug sensitivity score was 7.8.

Compound `C[C@@H]1C[C@H]2O[C@@H]2/C=C\C=C\C(=O)Cc2c(Cl)c(O)cc(O)c2C(=O)O1` [Radicicol] yielded a drug sensitivity score of 3.2.

As for `CNC(=O)c1cc(Oc2ccc(NC(=O)Nc3cc(C(C)(C)C)nn3-c3ccc4ncccc4c3)c(F)c2)ccn1` [Rebastinib], the drug sensitivity score is 0.

As for `COc1cc(F)c(F)c(Nc2ccc(I)cc2F)c1NS(=O)(=O)C1(C[C@H](O)CO)CC1` [Refametinib], the drug sensitivity score was 14.8.

`CS(=O)(=O)c1ccc(C2=C(c3ccccc3)C(=O)OC2)cc1` [Rofecoxib] had a drug sensitivity score of 0.

As to `Cn1cc(-c2ccc3nnc(Sc4ccc5ncccc5c4)n3n2)cn1` [SGX-523], the drug sensitivity score amounted to 0.

Compound `CC(C)NC(=O)COc1cccc(-c2nc(Nc3ccc4[nH]ncc4c3)c3ccccc3n2)c1` [SLx-2119] registered a drug sensitivity score of 2.7.

`O=C(Nc1cccc(Cl)c1)Nc1ncc(CCNc2ncnc3ccsc23)s1` [SNS-314]: the drug sensitivity score is 0.4.

`Cc1cc(C)c(/C=C2\C(=O)Nc3ccccc32)[nH]1` [Semaxanib] had a drug sensitivity score of 4.4.

`c1ccc2c(CCNc3ccc(Nc4ccncc4)cc3)c[nH]c2c1` [Serdemetan]: the drug sensitivity score came to 3.4.

Regarding `O=[N+]([O-])c1ccc2c(c1)S(=O)(=O)C=C2` [Stattic], the drug sensitivity score turned out to be 6.3.

The compound `CN(N=O)C(=O)N[C@@H](C=O)[C@@H](O)[C@H](O)[C@H](O)CO` [Streptozocin] displayed a drug sensitivity score of 0.

`N#Cc1c(Oc2ccc(F)c(NC(=O)Cc3cccc(C(F)(F)F)c3)c2)ccc2nc(NC(=O)C3CC3)sc12` [TAK-632] came in with a drug sensitivity score of 4.4.

Consider `CCc1nc(-c2cccc(C)c2)c(-c2ccnc(NC(=O)c3ccccc3)c2)s1` [TAK-715], for which the drug sensitivity score is 0.
